ChEMBL document CHEMBL5579811, “Synthesis, SARS-CoV-2 main protease inhibition, molecular docking and in silico ADME studies of furanochromene-quinoline hydrazone derivatives” (Bioorg Med Chem Lett, 2024)

Target: Replicase polyprotein 1ab (Severe acute respiratory syndrome coronavirus 2, UniProt P0DTD1)
Experiment: Inhibition of SARS-COV-2 main protease using fluorogenic substrate (DABCYL)-Lys-Thr- Ser-Ala-Val-Leu-Gln-Ser-Gly-Phe-Arg-Lys-Met-Glu-(EDANS)-NH2 measured every 5 mins for 50 mins by plate reader assay

SMILES | IC50 [µM]
CC1(C)C=Cc2c(ccc3cc(C(=O)N/N=C/c4cnc5ccccc5c4)oc23)O1 | 29.7
CC1(C)C=Cc2c(ccc3cc(C(=O)N/N=C/c4cccc5ncccc45)oc23)O1 | 43.1
CC1(C)C=Cc2c(ccc3cc(C(=O)N/N=C/c4ccnc5ccccc45)oc23)O1 | 129
CC1(C)C=Cc2c(ccc3cc(C(=O)N/N=C/c4cccc5cccnc45)oc23)O1 | 16.1
CC1(C)C=Cc2c(ccc3cc(C(=O)N/N=C/c4ccc5cccc(O)c5n4)oc23)O1 | 183
CC1(C)C=Cc2c(ccc3cc(C(=O)N/N=C/c4ccc5ccccc5n4)oc23)O1 | > 250
CC1(C)C=Cc2c(ccc3cc(C(=O)N/N=C/c4ccc5ncccc5c4)oc23)O1 | 34.1
